Patent publication US10551393B1, “High-throughput, in vivo screening platform for modulators of Apolipoprotein B” (THE JOHNS HOPKINS UNIVERSITY, priority 2016, dated 2020)
“Also recorded” adds a separate entry of the source.

How the values were obtained:
[1] = test system: ApoB-NanoLuc® luciferase reporter; assay: ApoB-NanoLuc luciferase reporter assay in transgenic zebrafish larvae (primary screen); type: in vivo
Description: Of the two existing inhibitors of ApoB, lomitapide is the most appropriate for use as a proof of principle because it is a small molecule. Conversely, mipomersen is an injectable antisense biologic that is not suitable for comparison to small-molecule inhibitors and cannot be used a high-throughput manner. Larval zebrafish were treated with serial dilutions of the lomitapide for 36 hours from 2.5 to 4 dpf.
There are detailed protocols for the development and execution of a high-throughput screen using live vertebrate zebrafish (26, 27). The high-throughput screen uses transgenic zebrafish that carry both an engineered luciferase reporter (NanoLuc® luciferase) fused to ApoB which serves as the primary readout, and a second ubiquitously expressed firefly luciferase reporter that is used as an internal control. Transgenic larvae are raised to 3 days post-fertilization (dpf) and automatically sorted and dispensed into 96-well plates containing various dilutions of test compound. Following 48-hour incubation with test and control compounds, the zebrafish are homogenized and assayed sequentially for Firefly and NanoLuc® luciferase signal using the automated robotics platform and plate reader. Hit-calling software is used to select putative hits, which are validated through repetition and orthogonal screening. The first iteration of the screen uses a modest-sized library (3,000 compounds), and empirical determination of the optimal sample size and number of titration points required for screening enables an increase in throughput for the following iteration of the screen, which screens a 30,000 compound library.
Statistical resampling of positive control treatments can be used to estimate the appropriate sample size for HTS assays given type I and type II error rate thresholds and a desired cutoff for effect size (27). Assuming a type II error rate of 0.01 and setting the hit selection cutoff to 50% the magnitude of positive control treatment generates a log-linear relationship between sample size and type I error rate. […] Besides serving as a metric for assay quality, the SSMD score can also be used to determine hit cutoff criteria. This statistical test compares the averages between the negative control and each experimental sample, and then adjusts this difference based on the median absolute deviation (MAD) of each sample, such that samples with high variability are penalized and produce a poor SSMD score even if there is a large difference between the means. In positive control treatments, lomitapide produced an SSMD score of −4.5, reflecting a very strong control assay. The scaling factor formula can be used to determine the SSMD cutoff based on the desired magnitude relative to the positive control. A compound with a 50% effect size relative to MTP was chosen as a physiologically relevant effect size, which would produce an SSMD score of −2.7.
Day 1: Embryo production and collection—zebrafish homozygous for the ApoB-NanoLuc® luciferase and ubi:Fluc reporters are induced to spawn using custom mass-breeding chambers. Eggs are collected hourly from 9 AM to 2 PM. Embryos are maintained in petri dishes at a density of 5 fish/mL of embryo medium (E3). Day 2: Raising embryos—Embryos are maintained in E3 (1 dpf). Day 3: Raising embryos and preparing drug plates—Embryos are maintained in embryo medium (2 dpf). […]

[2] = test system: firefly luciferase internal control reporter; assay: Firefly luciferase internal control (counter-screen) of the dual luciferase assay; type: in vivo; details: preliminary screen; cutoff SSMD ±2.4
Description: The primary screen seeks to identify compounds that lower ApoB levels, which is likely to identify numerous false positives that are cytotoxic or inhibit fundamental cellular processes such as transcription or translation. The inclusion of a counter-screen helps identify compounds that have strong effects on the target phenotype without causing major disruptions in other cellular processes. The pd75 zebrafish line carries a ubiquitous promoter driving firefly luciferase as well as the mCherry fluorescent reporter, which can be used to detect developmental delay or cytotoxicity in any organ. […]
The Nano-Glo® dual luciferase assay provides the means to independently measure firefly and NanoLuc® luciferase in a single reaction enabling parallel measurement of the primary screen reaction and counter-screen reaction in a high-throughput compatible add-and-read format. Consistent measurement of luciferase activity requires homogenous sample inputs, so we have developed homogenization methods using a microplate sonicator that exceeds the throughput capacity of the plate reader.
The NanoLuc® luciferase reporter uses a different substrate than firefly luciferase, allowing a second luciferase reporter to be measured in parallel as an internal control. […]

[3] = test system: ApoB-containing lipoprotein particles; assay: In-gel luciferase assay for lipoprotein size distribution; type: in vivo, zebrafish; details: for lipoprotein particle size distribution: larval zebrafish homogenate, polyacrylamide gel, in-gel luciferase
Description: To evaluate whether introduction of the luciferase tag disrupted protein function, individual larvae carrying the reporter construct were homogenized and lipoprotein classes were separated on a 3% PAGE gel (see Singh et al. Lipids in Health and Disease 7:47, 2008). An in-gel luciferase assay was then performed to detect the NanoLuc® luciferase reporter present in the gel (FIG. 2A), and compared to the results obtained from adult zebrafish serum that was stained using lipophilic fluorescent dye (FIG. 2B). Encouragingly, essentially all of the signal was present in the expected VLDL, IDL, and LDL portions of the gel, which is consistent with the primary role of ApoB as an obligate structural component of lipid-rich lipoproteins. Additionally, this method has sufficient sensitivity and resolution to detect LDL subclasses, which are seen as deviations from the normal distribution in the plot profile. […] Additionally, signal from the ApoB-luciferase fusion is responsive to known chemical and physiological modulators of ApoB (MTP inhibition and fasting).
The in-gel luciferase assay developed in our lab provides the opportunity to rapidly and sensitively detect changes in lipoprotein size distribution using individual larval zebrafish. Following a week of high-fat diet with or without treatment of test compound, larval zebrafish are homogenized and lipoproteins are separated on a 3% native PAGE gel and imaged using the in-gel luciferase reporter. This enables rapid assessment of lead compounds on effects of the potentially clinically important lipoprotein size distribution phenotype. […]
In addition to its utility as a high-throughput compatible readout for measuring levels of Apolipoprotein B, the described ApoB-NanoLuc® luciferase reporter can also be used to measure the size distribution and localization of ApoB-containing particles in zebrafish larvae. Lipoproteins separated using polyacrylamide gel electrophoresis can be sensitively detected in individual larval homogenates by immersing the gel in the NanoLuc® luciferase substrate. […]

[4] = test system: ApoB; details: cited from earlier work

SMILES: O=C(NC1CCN(CCCCC2(C(=O)NCC(F)(F)F)c3ccccc3-c3ccccc32)CC1)c1ccccc1-c1ccc(C(F)(F)F)cc1 [lomitapide]
- reporter activity relative to vehicle-treated controls ([1]; larval zebrafish, serial dilutions, 36 hours from 2.5 to 4 dpf): dose-dependent reduction
- SSMD score (ApoB-NanoLuc) ([1]; positive control treatments, hit cutoff −2.7): −4.5
- NanoLuc luciferase levels ([1]; preliminary screen, dose-response, hit selection cutoff −2.7): dose-dependent decrease
- change in ApoB (ApoB-NanoLuc) ([1]; preliminary validation screen of lipid/lipoprotein metabolism compounds): significant change in ApoB
- ApoB-NanoLuc luciferase levels in transgenic larvae ([1]; transgenic larvae): significantly lowered
- effect on internal control reporter (firefly luciferase) [2]: without affecting the internal control reporter
- ApoB levels ([3]; acute treatment, larval zebrafish, 3% native PAGE): significant reduction
- lipoprotein particle size distribution [3]: unable to create large lipoprotein particles; also recorded: particle size and number are greatly reduced; also recorded: did not have large lipoprotein particles
- lipoprotein particle size distribution ([3]; listed as Lomitapide): induced the formation of very small lipoprotein particles
- ApoB levels in humans [4]: significant reduction
